Measurements taken from patent US20240270762A1, “PENICILLIN-BINDING PROTEIN INHIBITORS” (priority 2021, published 2024).
Values after ≈ are worked out from the molar mass of the structure shown. Like-named read-outs stand apart in the source and are kept apart here.

Columns and labels:
P. aeruginosa ATCC 27853 = assay: microbe, parasite or virus in culture; assay type: cell-based; details: Pseudomonas aeruginosa, ATCC27853, read-out: Minimum inhibitory concentration, P. aeruginosa ATCC 27853
A. baumannii ATCC 17978 = assay: microbe, parasite or virus in culture; assay type: cell-based; details: Acinetobacter baumannii, ATCC17978, read-out: MIC, A. baumannii ATCC 17978
A. baumannii ATCC 19606 = assay: microbe, parasite or virus in culture; assay type: cell-based; details: Acinetobacter baumannii, ATCC19606, read-out: MIC, A. baumannii ATCC 19606
P. aeruginosa ATCC 35151 = assay: microbe, parasite or virus in culture; assay type: cell-based; details: Pseudomonas aeruginosa, ATCC35151, read-out: Minimum inhibitory concentration, P. aeruginosa ATCC 35151
[1] = tested on: P. aeruginosa (ΔmexAB-oprM); assay: Broth microdilution MIC in iron-depleted CAMHB (IDM); assay type: cell-based; details: Pseudomonas aeruginosa; iron-depleted CAMHB (IDM); […]; read-out: Minimum inhibitory concentration, P. aeruginosa ΔmexAB-oprM
P. aeruginosa CDC-0090 = assay: microbe, parasite or virus in culture; assay type: cell-based; details: Pseudomonas aeruginosa, CDC0090, read-out: Minimum inhibitory concentration, P. aeruginosa CDC-0090
A. baumannii 1258916 = assay: microbe, parasite or virus in culture; assay type: cell-based, Acinetobacter baumannii; details: Acinetobacter baumannii, 1258916, read-out: MIC, A. baumannii 1258916
A. baumannii CDC-0036 = assay: microbe, parasite or virus in culture; assay type: cell-based; details: Acinetobacter baumannii, CDC0036, read-out: MIC, A. baumannii CDC-0036
A. baumannii CDC-0045 = assay: microbe, parasite or virus in culture; assay type: cell-based; details: Acinetobacter baumannii, CDC0045, read-out: MIC, A. baumannii CDC-0045
[2] = tested on: B. thailandensis ATCC 700388; assay: microbe, parasite or virus in culture; assay type: cell-based; details: Burkholderia thailandensis, ATCC700388, read-out: Minimum inhibitory concentration (MIC), B. thailandensis ATCC 700388
[3] = tested on: B. humptydooensis ATCC BAA-2767; assay: microbe, parasite or virus in culture; assay type: cell-based; details: Burkholderia humptydooensis, ATCCBAA2767, read-out: Minimum inhibitory concentration (MIC), B. humptydooensis ATCC BAA-2767
P. aeruginosa CDC-0110 = assay: microbe, parasite or virus in culture; assay type: cell-based; details: Pseudomonas aeruginosa, CDC0110, read-out: Minimum inhibitory concentration, P. aeruginosa CDC-0110
N. gonorrhoeae WHO X = assay: Liquid broth MIC in Fastidious broth; details: Neisseria gonorrhoeae
N. gonorrhoeae WHO Q = assay: Liquid broth MIC in Fastidious broth; details: Neisseria gonorrhoeae
N. gonorrhoeae CDC-0197 = assay: Liquid broth MIC in Fastidious broth; details: Neisseria gonorrhoeae
[4] = read-out: Minimum Inhibitory Concentration, WHO X
[5] = read-out: Minimum Inhibitory Concentration, WHO Q
[6] = CDC0197, read-out: Minimum Inhibitory Concentration, CDC-0197
[7] = read-out: Minimum Inhibitory Concentration (MIC), N. gonorrhoeae WHO X
[8] = read-out: Minimum Inhibitory Concentration (MIC), N. gonorrhoeae WHO Q
[9] = CDC0197, read-out: Minimum Inhibitory Concentration (MIC), N. gonorrhoeae CDC-0197

SMILES	MIC (P. aeruginosa ATCC 27853)	MIC (A. baumannii ATCC 17978)	MIC (A. baumannii ATCC 19606)	MIC (P. aeruginosa ATCC 35151)	MIC [1]	MIC (P. aeruginosa CDC-0090)	MIC (A. baumannii 1258916)	MIC (A. baumannii CDC-0036)	MIC (A. baumannii CDC-0045)	MIC [2]	MIC [3]	MIC (P. aeruginosa CDC-0110)	MIC (N. gonorrhoeae WHO X; [4])	MIC (N. gonorrhoeae WHO Q; [5])	MIC (N. gonorrhoeae CDC-0197; [6])	MIC (N. gonorrhoeae WHO X; [7])	MIC (N. gonorrhoeae WHO Q; [8])	MIC (N. gonorrhoeae CDC-0197; [9])
O=C(NCCCN1CCN(C(=O)N[C@@H](C(=O)N[C@H]2Cc3ccc(F)c(C(=O)O)c3OB2O)c2cc(F)c(O)c(O)c2Cl)C1=O)Nc1cccc(O)c1 [Example 258, (R)-3-((R)-2-(2-chloro-5-fluoro-3,4-dihydroxyphenyl)-2-(3-(3-(3-(3-hydroxyphenyl)ureido)propyl)-2-oxoimidazolidine-1-carboxamido)acetamido)-7-fluoro-2-hydroxy-3,4-dihydro-2H-benzo[e][1,2]oxaborinine-8-carboxylic acid]	2 to 4 µg/mL (≈ 2.68 to 5.36 µM)	< 1 µg/mL	< 1 µg/mL	< 1 µg/mL	< 1 µg/mL	< 1 µg/mL	< 1 µg/mL	< 1 µg/mL	< 1 µg/mL	< 1 µg/mL	< 1 µg/mL	< 1 µg/mL	> 64 µg/mL	16 to 32 µg/mL (≈ 21.4 to 42.8 µM)	16 to 32 µg/mL (≈ 21.4 to 42.8 µM)			
O=C(CN1CCN(C(=O)NC(C(=O)N[C@H]2Cc3ccc(F)c(C(=O)O)c3OB2O)c2cc(F)c(O)c(O)c2Cl)C(=O)C1=O)Nc1cccnc1 (stereo partly drawn) [Example 234, (3R)-3-(2-(2-chloro-5-fluoro-3,4-dihydroxyphenyl)-2-(2,3-dioxo-4-(2-oxo-2-(pyridin-3-ylamino)ethyl)piperazine-1-carboxamido)acetamido)-7-fluoro-2-hydroxy-3,4-dihydro-2H-benzo[e][1,2]oxaborinine-8-carboxylic acid]	2 to 4 µg/mL (≈ 2.79 to 5.58 µM)	< 1 µg/mL	< 1 µg/mL	< 1 µg/mL	< 1 µg/mL	2 to 4 µg/mL (≈ 2.79 to 5.58 µM)	< 1 µg/mL	2 to 4 µg/mL (≈ 2.79 to 5.58 µM)	< 1 µg/mL	8 to 16 µg/mL (≈ 11.2 to 22.3 µM)	< 1 µg/mL	< 1 µg/mL				> 64 µg/mL	16 to 32 µg/mL (≈ 22.3 to 44.6 µM)	16 to 32 µg/mL (≈ 22.3 to 44.6 µM)
O=C(NCCN1CCN(C(=O)N[C@@H](C(=O)N[C@H]2Cc3ccc(F)c(C(=O)O)c3OB2O)c2cc(F)c(O)c(O)c2Cl)C(=O)C1=O)Nc1ccncc1 [Example 221, (R)-3-((R)-2-(2-chloro-5-fluoro-3,4-dihydroxyphenyl)-2-(2,3-dioxo-4-(2-(3-(pyridin-4-yl)ureido)ethyl)piperazine-1-carboxamido)acetamido)-7-fluoro-2-hydroxy-3,4-dihydro-2H-benzo[e][1,2]oxaborinine-8-carboxylic acid]	< 1 µg/mL	< 1 µg/mL	< 1 µg/mL	< 1 µg/mL	< 1 µg/mL	< 1 µg/mL	2 to 4 µg/mL (≈ 2.68 to 5.36 µM)	2 to 4 µg/mL (≈ 2.68 to 5.36 µM)	< 1 µg/mL	2 to 4 µg/mL (≈ 2.68 to 5.36 µM)	< 1 µg/mL	< 1 µg/mL				> 64 µg/mL	> 64 µg/mL	> 64 µg/mL
O=C(NCCCS(=O)(=O)N1CCN(C(=O)NC(C(=O)N[C@H]2Cc3ccc(F)c(C(=O)O)c3OB2O)c2cc(F)c(O)c(O)c2Cl)C1=O)c1ccc(O)cc1 (stereo partly drawn) [Example 269, (3R)-3-(2-(2-chloro-5-fluoro-3,4-dihydroxyphenyl)-2-(3-((3-(4-hydroxybenzamido)propyl)sulfonyl)-2-oxoimidazolidine-1-carboxamido)acetamido)-7-fluoro-2-hydroxy-3,4-dihydro-2H-benzo[e][1,2]oxaborinine-8-carboxylic acid]	2 to 4 µg/mL (≈ 2.51 to 5.03 µM)	< 1 µg/mL	< 1 µg/mL	< 1 µg/mL	< 1 µg/mL	2 to 4 µg/mL (≈ 2.51 to 5.03 µM)	2 to 4 µg/mL (≈ 2.51 to 5.03 µM)	8 to 16 µg/mL (≈ 10.1 to 20.1 µM)	< 1 µg/mL	> 128 µg/mL	> 128 µg/mL	8 to 16 µg/mL (≈ 10.1 to 20.1 µM)	> 64 µg/mL	16 to 32 µg/mL (≈ 20.1 to 40.2 µM)	16 to 32 µg/mL (≈ 20.1 to 40.2 µM)			
O=C(NCCS(=O)(=O)N1CCN(C(=O)N[C@@H](C(=O)N[C@H]2Cc3ccc(F)c(C(=O)O)c3OB2O)c2cc(F)c(O)c(O)c2Cl)C1=O)c1nccs1 [Example 264, (R)-3-((R)-2-(2-chloro-5-fluoro-3,4-dihydroxyphenyl)-2-(2-oxo-3-((2-(thiazole-2-carboxamido)ethyl)sulfonyl)imidazolidine-1-carboxamido)acetamido)-7-fluoro-2-hydroxy-3,4-dihydro-2H-benzo[e][1,2]oxaborinine-8-carboxylic acid]	< 1 µg/mL	< 1 µg/mL	< 1 µg/mL	< 1 µg/mL	< 1 µg/mL	< 1 µg/mL	< 1 µg/mL	< 1 µg/mL	< 1 µg/mL	< 1 µg/mL	2 to 4 µg/mL (≈ 2.59 to 5.18 µM)	< 1 µg/mL	> 64 µg/mL	16 to 32 µg/mL (≈ 20.7 to 41.4 µM)	16 to 32 µg/mL (≈ 20.7 to 41.4 µM)			
O=C(NCCCN1CCN(C(=O)N[C@H](C(=O)N[C@H]2Cc3ccc(F)c(C(=O)O)c3OB2O)c2cc(F)c(O)c(O)c2Cl)C1=O)c1cccc(O)c1 [Example 254, (R)-3-((S)-2-(2-chloro-5-fluoro-3,4-dihydroxyphenyl)-2-(3-(3-(3-hydroxybenzamido)propyl)-2-oxoimidazolidine-1-carboxamido)acetamido)-7-fluoro-2-hydroxy-3,4-dihydro-2H-benzo[e][1,2]oxaborinine-8-carboxylic acid]	> 128 µg/mL	2 to 4 µg/mL (≈ 2.73 to 5.47 µM)	8 to 16 µg/mL (≈ 10.9 to 21.9 µM)	< 1 µg/mL	> 128 µg/mL	> 128 µg/mL	> 128 µg/mL	> 128 µg/mL	> 128 µg/mL	> 128 µg/mL	> 128 µg/mL	> 128 µg/mL	> 64 µg/mL	> 64 µg/mL	> 64 µg/mL			
O=C(NCCN1CCN(C(=O)NC(C(=O)N[C@H]2Cc3ccc(F)c(C(=O)O)c3OB2O)c2cc(F)c(O)c(O)c2Cl)C1=O)c1cccnc1 (stereo partly drawn) [Example 246, (3R)-3-(2-(2-chloro-5-fluoro-3,4-dihydroxyphenyl)-2-(3-(2-(nicotinamido)ethyl)-2-oxoimidazolidine-1-carboxamido)acetamido)-7-fluoro-2-hydroxy-3,4-dihydro-2H-benzo[e][1,2]oxaborinine-8-carboxylic acid]	2 to 4 µg/mL (≈ 2.85 to 5.69 µM)	< 1 µg/mL	< 1 µg/mL	< 1 µg/mL	< 1 µg/mL	2 to 4 µg/mL (≈ 2.85 to 5.69 µM)	< 1 µg/mL	2 to 4 µg/mL (≈ 2.85 to 5.69 µM)	< 1 µg/mL	2 to 4 µg/mL (≈ 2.85 to 5.69 µM)	2 to 4 µg/mL (≈ 2.85 to 5.69 µM)	< 1 µg/mL	> 64 µg/mL	> 64 µg/mL	> 64 µg/mL			
O=C(NCCN1CCN(C(=O)NC(C(=O)N[C@H]2Cc3ccc(F)c(C(=O)O)c3OB2O)c2cc(F)c(O)c(O)c2Cl)C(=O)C1=O)c1ccncc1 (stereo partly drawn) [Example 216, (3R)-3-(2-(2-chloro-5-fluoro-3,4-dihydroxyphenyl)-2-(4-(2-(isonicotinamido)ethyl)-2,3-dioxopiperazine-1-carboxamido)acetamido)-7-fluoro-2-hydroxy-3,4-dihydro-2H-benzo[e][1,2]oxaborinine-8-carboxylic acid]	2 to 4 µg/mL (≈ 2.74 to 5.47 µM)	< 1 µg/mL	< 1 µg/mL	< 1 µg/mL	< 1 µg/mL	< 1 µg/mL	2 to 4 µg/mL (≈ 2.74 to 5.47 µM)	8 to 16 µg/mL (≈ 10.9 to 21.9 µM)	2 to 4 µg/mL (≈ 2.74 to 5.47 µM)	2 to 4 µg/mL (≈ 2.74 to 5.47 µM)	< 1 µg/mL	< 1 µg/mL				> 64 µg/mL	16 to 32 µg/mL (≈ 21.9 to 43.8 µM)	16 to 32 µg/mL (≈ 21.9 to 43.8 µM)
